Measured values from patent US20230321083A1, “Inhibitors of GPR174 and Uses Thereof” (Omeros Corporation, priority 2016, published 2023).
Values joined by “and” are separate entries in the source; they are usually repeats but may differ in a detail not shown here. Equal entries are not always repeated.

Legend:
Format in all cases: cell-based
[1] = molecular target: T1, ADBR2 (Homo sapiens, UniProt P07550); assay: CRE-Luc reporter Gs signaling assay, control receptor ADBR2
T1 construct: host or cells: HEK293 or CHO cell lines (ATCC)
Method: (§1) Compounds were tested in the reporter system with increasing concentrations of GPR174-interacting compounds. GPR174 construct pCMV6-XL4-GPR174 or ADBR2, reporter of interest, pCRE-Luc or GL4.29 (3000 ng), and TK-renilla as an internal control (10 ng) with lipofectamine 2000 (60 ug) (Invitrogen, CA) according to the manufacturer's directions.
(§2) The DNA/lipofectamine 2000 mix (3000 μL) was incubated at room temperature for 30 minutes and then added into a 10 cm culture dish (Corning, NY) containing 70-90% confluent cultured cells, typically HEK293 or CHO cell lines (ATCC, VA), in 15 mL of media. The cells were further incubated for 4-6 hours at 37° C. and then media were removed and cells were detached with 2 mL trypsin (Life Technologies, CA). Media (26 mL) were added to the detached cells and 120 μL of transfected cells were transferred to each well on a 96-well plate. Increasing concentration of each compound in DMSO (1.2 μl) was added to the cells after plating into the 96-well plate. The cells were further incubated at 37° C. for various times. The media were removed and the cells lysed. Luciferase and renilla activities were measured with the Dual-luciferase assay system (Promega, WI) according to the manufacturer's directions. Typically, lysis buffer (25 μL) was added to the cells and incubated at room temperature for 20-30 minutes to allow for the cells to lyse. The lysate (10 μL) was measured for luciferase and renilla activity with LARII and Stop&Glo reagent (50 μL each) with a SpectraMax L (Molecular Devices, CA). Data were analyzed with either Excel (Microsoft, WA) or Prism 4.03 (GraphPad, CA).
(§3) ADBR2 is a GPCR, like GPR174, that activates the Gs signaling pathway.

[2] = molecular target: T2, GPR174 (Homo sapiens, UniProt Q9BXC1); assay: CRE-Luc reporter Gs signaling assay, cells transfected with GPR174; design: host or cells: HEK293 or CHO cell lines (ATCC); details: for effect on Gs pathway in the presence of GPR174: CRE-Luc reporter; for nature of compound in GPR174 signaling assay: human GPR174 with pCRE-Luc
Method: as §1, §2, §3
Target sequence in this assay (Q9BXC1 whole entry): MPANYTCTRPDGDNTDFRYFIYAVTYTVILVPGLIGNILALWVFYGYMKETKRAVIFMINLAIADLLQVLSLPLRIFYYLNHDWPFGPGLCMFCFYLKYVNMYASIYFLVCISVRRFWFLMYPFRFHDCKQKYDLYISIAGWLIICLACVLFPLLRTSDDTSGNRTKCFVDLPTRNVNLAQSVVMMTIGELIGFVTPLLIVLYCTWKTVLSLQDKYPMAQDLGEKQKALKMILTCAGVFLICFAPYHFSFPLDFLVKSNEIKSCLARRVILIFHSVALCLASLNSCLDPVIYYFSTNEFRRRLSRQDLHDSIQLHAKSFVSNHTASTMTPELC

[3] = molecular target: T2, GPR174; assay: Cellular Redistribution Assay (CRA) against GPR174; design: fused on or other part: No tag or reporter is given; details: multiple values = separate experiments
Text: One method for identifying compounds capable of modulating a receptor is using a cellular redistribution assay (“CRA”). Exemplary CRA methods are found in U.S. Pat. No. 7,309,576 issued to O'Dowd et al. and in O'Dowd et al., J. Biomol. Screen. 12:175-85, 2007. […] Incorporation of the NLS alters the cellular localization of the GPCR, such that the majority of the NLS-modified receptor is present in the cell interior. An NLS-modified GPCR, when interacting with a functionally active compound, is mostly localized on the cell surface. Thus, it becomes possible to identify receptor modulators without knowledge of the endogenous ligand or a surrogate ligand.
The inventors have identified a number of compounds that inhibit GPR174 using a CRA assay similar to that described in U.S. Pat. No. 7,309,576 and in O'Dowd et al., J. Biomol. Screen. 12:175-85, 2007. These compounds are described in detail below.
The inventors used a CRA similar to that described in U.S. Pat. No. 7,309,576 and O'Dowd et al., J. Biomol. Screen. 12:175-85, 2007 to identify compounds that are capable of interacting with GPR174 using a library of approximately 370,000 chemical entities. Briefly described, the CRA assay described in U.S. Pat. No. 7,309,576 involves artificially inserting a NLS into the dopamine D1 receptor (DRD1), which allows the receptor to traffic from the cell membrane to the cell interior, and that the binding of antagonists to the receptor retained the receptor at the cell surface, while removal of the ligand allowed the receptor to continue to internalize from the cell surface. Both antagonists and agonists that selectively bound the receptor retained the receptor on the plasma membrane. GPR174 constructs were generated for use in a CRA-based compound screening assay. From this screen, the inventors initially identified compounds of formula I-VI, as described herein and included in TABLE 1.
Target sequence in this assay (Q9BXC1 1-290 limits assumed): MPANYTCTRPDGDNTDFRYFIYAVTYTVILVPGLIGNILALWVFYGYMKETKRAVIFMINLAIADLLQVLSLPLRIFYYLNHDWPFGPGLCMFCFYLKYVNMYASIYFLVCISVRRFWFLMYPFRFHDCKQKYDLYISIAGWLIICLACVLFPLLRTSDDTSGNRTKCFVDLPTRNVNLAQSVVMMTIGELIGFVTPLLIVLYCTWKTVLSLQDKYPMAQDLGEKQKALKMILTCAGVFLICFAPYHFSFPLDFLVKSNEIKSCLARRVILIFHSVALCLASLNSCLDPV

T1 sequence (P07550 whole entry): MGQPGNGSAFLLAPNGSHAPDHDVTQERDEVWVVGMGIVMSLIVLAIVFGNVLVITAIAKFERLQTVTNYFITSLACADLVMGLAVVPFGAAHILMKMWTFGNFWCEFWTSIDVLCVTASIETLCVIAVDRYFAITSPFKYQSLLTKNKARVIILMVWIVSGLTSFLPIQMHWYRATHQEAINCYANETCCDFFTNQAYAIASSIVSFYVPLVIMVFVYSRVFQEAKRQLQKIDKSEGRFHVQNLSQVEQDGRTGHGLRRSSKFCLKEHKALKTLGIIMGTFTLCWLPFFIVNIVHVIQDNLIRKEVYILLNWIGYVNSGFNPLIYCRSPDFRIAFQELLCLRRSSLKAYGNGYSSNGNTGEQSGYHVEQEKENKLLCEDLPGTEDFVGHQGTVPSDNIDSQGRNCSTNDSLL

Structure (SMILES) | effect on Gs pathway in the presence of ADBR2 [1] | Human GPR174 CRE Activity: nature of compound [2] | effect on Gs pathway in the presence of GPR174 [2] | nature of compound in GPR174 signaling assay [2] | EC50 [3]
Cc1cc(Cc2ccc(NC(=O)c3cccs3)c(C)c2)ccc1NC(=O)c1cccs1 [Compound 21] | did not modulate the Gs pathway | Antagonist or allosteric modulator | did not modulate the Gs pathway | non-modulator | –
O=C1CCCC2=C1C(c1ccc(OCCO)cc1)C1=C(N2)c2ccccc2C1=O (stereo not shown) [Compound 33] | did not inhibit the Gs pathway | – | inhibited the Gs pathway | – | –
O=C(N/N=C/c1cc(Cl)ccc1O)c1ccncc1 [Compound 57] | – | Antagonist or allosteric modulator | – | GPR174 antagonists or allosteric modulators | 5.6 µM
O=[N+]([O-])c1cc(F)c(N2CCCCC2)cc1N1CCN(S(=O)(=O)c2ccccc2)CC1 [Compound 11] | did not inhibit the Gs pathway | – | inhibited the Gs pathway | – | 1.5 µM
COc1ccc(C2C3=C(CCCC3=O)NC3=C2C(=O)c2ccccc23)cc1 (stereo not shown) [Compound 22] | did not inhibit the Gs pathway | – | inhibited the Gs pathway | – | 6.7 µM and 5.3 µM
O=C1CCCC2=C1C(c1ccncc1)C1=C(N2)c2ccccc2C1=O (stereo not shown) [Compound 42] | did not inhibit the Gs pathway | – | inhibited the Gs pathway | – | –
CC1CCN(c2cc(N3CCN(C(=O)c4cccs4)CC3)c([N+](=O)[O-])cc2F)CC1 [Compound 12] | – | – | – | – | 0.3 µM
CCOC(=O)N1CCN(c2cc(N3CCCCC3)c(F)cc2[N+](=O)[O-])CC1 [Compound 7] | did not inhibit the Gs pathway | – | inhibited the Gs pathway | – | –
CCCCOc1ccc(C2C3=C(CCCC3=O)NC3=C2C(=O)c2ccccc23)cc1 (stereo not shown) [Compound 31] | did not inhibit the Gs pathway | – | inhibited the Gs pathway | – | –
Cc1ccc(-c2nnc(Nc3ccccc3)c3ccccc23)cc1S(N)(=O)=O [Compound 19] | did not modulate the Gs pathway | Antagonist or allosteric modulator | did not modulate the Gs pathway | non-modulators | –
CCOc1ccc(C2C3=C(CCCC3=O)NC3=C2C(=O)c2ccccc23)cc1 (stereo not shown) [Compound 23] | did not inhibit the Gs pathway | – | inhibited the Gs pathway | – | –
O=C1CCCC2=C1C(c1ccc3c(c1)OCCO3)C1=C(N2)c2ccccc2C1=O (stereo not shown) [Compound 36] | did not inhibit the Gs pathway | – | inhibited the Gs pathway | – | –
C=C(C)COc1ccc(NC(=O)Nc2ccccc2)cc1 [Compound 56] | – | – | – | inverse agonist | –
Cc1cc(C(=O)N/N=C/c2cc(Br)ccc2O)c(C)o1 [Compound 58] | – | Antagonist or allosteric modulator | – | GPR174 antagonists or allosteric modulators | 3.7 µM
